According to PubChem BioAssay AID1963963 (Molecular Pharmacology Branch, DTP, NCI, 2024):
One block for each compound: values may come before it.

System: 958667-338-R-J2-PDC tumor spheroids viability
Experiment: Anticancer human tumor 958667-338-R-J2-PDC patient-derived colon adenocarcinoma cell line growth inhibition [PI3K]
Settings: spheroids with HUVEC and MSC; for IC50: curve of first compound; for viability, T/C: stronger effect = lower value
Summary of the method: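 Combination activity was assessed by viability in multicellular tumor spheroids carrying HUVEC and MSC components. Agents were tested with PI3K inhibitors from a Cmax-based top dose (or 10 microM) downward in half-log increments.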

[1] = second compound 0.00316 µM, first compound 0.000316 µM
[2] = second compound 0.00316 µM, first compound 0.001 µM
[3] = second compound 0.00316 µM, first compound 0.00316 µM
[4] = second compound 0.00316 µM, first compound 0.01 µM
[5] = second compound 0.00316 µM, first compound 0.0316 µM
[6] = second compound 0.00316 µM, first compound 0.1 µM
[7] = second compound 0.01 µM, first compound 0.000316 µM
[8] = second compound 0.01 µM, first compound 0.001 µM
[9] = second compound 0.01 µM, first compound 0.00316 µM
[10] = second compound 0.01 µM, first compound 0.01 µM
[11] = second compound 0.01 µM, first compound 0.0316 µM
[12] = second compound 0.01 µM, first compound 0.1 µM
[13] = second compound 0.0316 µM, first compound 0.000316 µM
[14] = second compound 0.0316 µM, first compound 0.001 µM
[15] = second compound 0.0316 µM, first compound 0.00316 µM
[16] = second compound 0.0316 µM, first compound 0.01 µM
[17] = second compound 0.0316 µM, first compound 0.0316 µM
[18] = second compound 0.0316 µM, first compound 0.1 µM
[19] = second compound 0.1 µM, first compound 0.000316 µM
[20] = second compound 0.1 µM, first compound 0.001 µM
[21] = second compound 0.1 µM, first compound 0.00316 µM
[22] = second compound 0.1 µM, first compound 0.01 µM
[23] = second compound 0.1 µM, first compound 0.0316 µM
[24] = second compound 0.1 µM, first compound 0.1 µM
[25] = second compound 0.316 µM, first compound 0.000316 µM
[26] = second compound 0.316 µM, first compound 0.001 µM
[27] = second compound 0.316 µM, first compound 0.00316 µM
[28] = second compound 0.316 µM, first compound 0.01 µM
[29] = second compound 0.316 µM, first compound 0.0316 µM
[30] = second compound 0.316 µM, first compound 0.1 µM
[31] = second compound 1 µM, first compound 0.000316 µM
[32] = second compound 1 µM, first compound 0.001 µM
[33] = second compound 1 µM, first compound 0.00316 µM
[34] = second compound 1 µM, first compound 0.01 µM
[35] = second compound 1 µM, first compound 0.0316 µM
[36] = second compound 1 µM, first compound 0.1 µM
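Also: spheroids exposed to compounds for seven days before readout.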

IC50 (second compound 0.00316 µM): 65.1 nM
IC50 (second compound 0.01 µM): 64.9 nM
IC50 (second compound 0.0316 µM): 43.6 nM
IC50 (second compound 0.1 µM): 52.5 nM
IC50 (second compound 0.316 µM): 28.7 nM
IC50 (second compound 1 µM): 2.71 nM
Compound: CC(C)n1nc(-c2ccc3oc(N)nc3c2)c2c(N)ncnc21 + CC(Nc1ccc2c(c1)OCCn1cc(N3C(=O)OCC3C(F)F)nc1-2)C(N)=O
viability, T/C [1]: 103%
viability, T/C [2]: 120%
viability, T/C [3]: 92.5%
viability, T/C [4]: 91.7%
viability, T/C [5]: 80.8%
viability, T/C [6]: 33.3%
viability, T/C [7]: 109%
viability, T/C [8]: 109%
viability, T/C [9]: 95.9%
viability, T/C [10]: 94.7%
viability, T/C [11]: 71%
viability, T/C [12]: 37.1%
viability, T/C [13]: 99.5%
viability, T/C [14]: 74.3%
viability, T/C [15]: 81.5%
viability, T/C [16]: 65%
viability, T/C [17]: 64.5%
viability, T/C [18]: 32.9%
viability, T/C [19]: 79.3%
viability, T/C [20]: 86.9%
viability, T/C [21]: 85.9%
viability, T/C [22]: 75.3%
viability, T/C [23]: 68%
viability, T/C [24]: 28.7%
viability, T/C [25]: 58.2%
viability, T/C [26]: 59.8%
viability, T/C [27]: 66.2%
viability, T/C [28]: 65.1%
viability, T/C [29]: 48.9%
viability, T/C [30]: 21.8%
viability, T/C [31]: 65.7%
viability, T/C [32]: 53.8%
viability, T/C [33]: 45.6%
viability, T/C [34]: 44.3%
viability, T/C [35]: 35.4%
viability, T/C [36]: 23.5%

IC50 (second compound 0.00316 µM): > 100 nM
IC50 (second compound 0.01 µM): > 100 nM
IC50 (second compound 0.0316 µM): > 100 nM
IC50 (second compound 0.1 µM): > 100 nM
IC50 (second compound 0.316 µM): > 100 nM
IC50 (second compound 1 µM): 18 nM
Compound: CC(=O)c1c(C)c2cnc(Nc3ccc(N4CCNCC4)cn3)nc2n(C2CCCC2)c1=O + CC(Nc1ccc2c(c1)OCCn1cc(N3C(=O)OCC3C(F)F)nc1-2)C(N)=O
viability, T/C [1]: 96.6%
viability, T/C [2]: 107%
viability, T/C [3]: 101%
viability, T/C [4]: 104%
viability, T/C [5]: 99.1%
viability, T/C [6]: 84.3%
viability, T/C [7]: 107%
viability, T/C [8]: 95.7%
viability, T/C [9]: 105%
viability, T/C [10]: 102%
viability, T/C [11]: 107%
viability, T/C [12]: 83.8%
viability, T/C [13]: 97.3%
viability, T/C [14]: 73.8%
viability, T/C [15]: 78.3%
viability, T/C [16]: 90.2%
viability, T/C [17]: 98%
viability, T/C [18]: 85.3%
viability, T/C [19]: 78.2%
viability, T/C [20]: 87.4%
viability, T/C [21]: 89.2%
viability, T/C [22]: 75.2%
viability, T/C [23]: 92.3%
viability, T/C [24]: 58.2%
viability, T/C [25]: 61.9%
viability, T/C [26]: 73%
viability, T/C [27]: 62.8%
viability, T/C [28]: 65.9%
viability, T/C [29]: 56.9%
viability, T/C [30]: 67.4%
viability, T/C [31]: 64.5%
viability, T/C [32]: 62.8%
viability, T/C [33]: 47.5%
viability, T/C [34]: 53.2%
viability, T/C [35]: 56.6%
viability, T/C [36]: 37%
